Data published in article PMC3269548 (Neuropharmacology, 2011).
Several values for one entry are separate records, joined by “and”; a condition that tells them apart may be missing. Equal values may be shown once. Entries after “also recorded” stand apart in the source; their conditions may differ. Read-outs that look alike come from different tables or passages of the source. Each block holds one compound with its values, some of them ahead of it.

Columns and labels:
[1] = target: GluN1/GluN2A NMDA receptor (Rattus norvegicus, UniProt P35439+Q00959); assay type: cell-based; settings: for IC50: IC50 GluN1/GluN2A
[2] = test system: GluN1/GluN2D receptors with the NTD deleted on both the GluN1 and GluN2 subunits; assay: Inhibition of NTD-deleted GluN1/GluN2D receptor responses in Xenopus oocytes; assay type: cell-based
[3] = test system: GluN1/GluN2A-D NMDA receptors; assay type: cell-based
AMPA receptors = assay: Preliminary studies of antagonist activity at AMPA receptors
[4] = target: GluN1/GluN2B NMDA receptor (Rattus norvegicus, UniProt P35439+Q00960); assay type: cell-based; settings: 10 μM L-glutamate plus 10 μM glycine, ± s.e.m., n ≥ 4
GluN1/GluN2B NMDA receptor, sequence (Q00960 27-1482, other chains not shown): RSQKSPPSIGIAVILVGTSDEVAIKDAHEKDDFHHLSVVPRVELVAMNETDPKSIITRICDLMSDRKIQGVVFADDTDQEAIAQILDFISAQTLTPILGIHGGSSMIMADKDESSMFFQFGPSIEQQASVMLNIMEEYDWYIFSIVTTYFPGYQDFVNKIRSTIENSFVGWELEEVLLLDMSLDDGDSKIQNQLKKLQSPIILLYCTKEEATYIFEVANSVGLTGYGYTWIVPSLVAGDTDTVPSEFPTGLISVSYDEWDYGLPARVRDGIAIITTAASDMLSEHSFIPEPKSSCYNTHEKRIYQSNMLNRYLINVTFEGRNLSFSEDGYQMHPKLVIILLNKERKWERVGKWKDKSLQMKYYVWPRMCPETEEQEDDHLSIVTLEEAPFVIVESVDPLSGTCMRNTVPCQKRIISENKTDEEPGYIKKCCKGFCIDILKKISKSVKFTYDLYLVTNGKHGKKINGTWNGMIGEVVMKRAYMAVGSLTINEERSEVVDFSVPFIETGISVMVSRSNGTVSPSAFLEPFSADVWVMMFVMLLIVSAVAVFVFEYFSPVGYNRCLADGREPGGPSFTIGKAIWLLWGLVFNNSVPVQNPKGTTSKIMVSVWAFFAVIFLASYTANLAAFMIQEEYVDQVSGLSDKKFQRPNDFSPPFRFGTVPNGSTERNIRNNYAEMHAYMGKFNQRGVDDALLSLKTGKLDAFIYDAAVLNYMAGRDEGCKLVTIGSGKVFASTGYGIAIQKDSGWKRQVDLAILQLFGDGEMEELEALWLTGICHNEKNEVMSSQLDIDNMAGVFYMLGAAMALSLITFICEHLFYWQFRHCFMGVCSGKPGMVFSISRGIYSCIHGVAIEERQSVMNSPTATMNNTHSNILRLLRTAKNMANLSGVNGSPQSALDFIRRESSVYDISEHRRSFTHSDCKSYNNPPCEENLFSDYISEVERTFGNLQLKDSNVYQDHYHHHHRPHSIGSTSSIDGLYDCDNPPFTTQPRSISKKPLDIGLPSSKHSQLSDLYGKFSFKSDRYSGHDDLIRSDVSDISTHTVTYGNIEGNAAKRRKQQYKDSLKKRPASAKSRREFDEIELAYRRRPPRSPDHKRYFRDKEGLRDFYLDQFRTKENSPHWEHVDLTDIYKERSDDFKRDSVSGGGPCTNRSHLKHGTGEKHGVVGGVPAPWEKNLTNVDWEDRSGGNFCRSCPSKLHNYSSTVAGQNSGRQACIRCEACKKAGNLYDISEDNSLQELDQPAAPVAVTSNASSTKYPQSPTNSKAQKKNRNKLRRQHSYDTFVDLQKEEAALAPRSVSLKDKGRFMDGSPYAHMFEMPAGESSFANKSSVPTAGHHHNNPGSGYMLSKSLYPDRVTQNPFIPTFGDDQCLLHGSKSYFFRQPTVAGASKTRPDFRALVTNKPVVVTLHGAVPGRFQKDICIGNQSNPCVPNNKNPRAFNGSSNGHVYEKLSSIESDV

[5] = target: GluN1/GluN2D NMDA receptor (Rattus norvegicus, UniProt P35439+Q62645); assay type: cell-based; settings: for IC50: IC50 GluN1/GluN2D
GluN1/GluN2D NMDA receptor, sequence (Q62645 28-1323, other chains not shown): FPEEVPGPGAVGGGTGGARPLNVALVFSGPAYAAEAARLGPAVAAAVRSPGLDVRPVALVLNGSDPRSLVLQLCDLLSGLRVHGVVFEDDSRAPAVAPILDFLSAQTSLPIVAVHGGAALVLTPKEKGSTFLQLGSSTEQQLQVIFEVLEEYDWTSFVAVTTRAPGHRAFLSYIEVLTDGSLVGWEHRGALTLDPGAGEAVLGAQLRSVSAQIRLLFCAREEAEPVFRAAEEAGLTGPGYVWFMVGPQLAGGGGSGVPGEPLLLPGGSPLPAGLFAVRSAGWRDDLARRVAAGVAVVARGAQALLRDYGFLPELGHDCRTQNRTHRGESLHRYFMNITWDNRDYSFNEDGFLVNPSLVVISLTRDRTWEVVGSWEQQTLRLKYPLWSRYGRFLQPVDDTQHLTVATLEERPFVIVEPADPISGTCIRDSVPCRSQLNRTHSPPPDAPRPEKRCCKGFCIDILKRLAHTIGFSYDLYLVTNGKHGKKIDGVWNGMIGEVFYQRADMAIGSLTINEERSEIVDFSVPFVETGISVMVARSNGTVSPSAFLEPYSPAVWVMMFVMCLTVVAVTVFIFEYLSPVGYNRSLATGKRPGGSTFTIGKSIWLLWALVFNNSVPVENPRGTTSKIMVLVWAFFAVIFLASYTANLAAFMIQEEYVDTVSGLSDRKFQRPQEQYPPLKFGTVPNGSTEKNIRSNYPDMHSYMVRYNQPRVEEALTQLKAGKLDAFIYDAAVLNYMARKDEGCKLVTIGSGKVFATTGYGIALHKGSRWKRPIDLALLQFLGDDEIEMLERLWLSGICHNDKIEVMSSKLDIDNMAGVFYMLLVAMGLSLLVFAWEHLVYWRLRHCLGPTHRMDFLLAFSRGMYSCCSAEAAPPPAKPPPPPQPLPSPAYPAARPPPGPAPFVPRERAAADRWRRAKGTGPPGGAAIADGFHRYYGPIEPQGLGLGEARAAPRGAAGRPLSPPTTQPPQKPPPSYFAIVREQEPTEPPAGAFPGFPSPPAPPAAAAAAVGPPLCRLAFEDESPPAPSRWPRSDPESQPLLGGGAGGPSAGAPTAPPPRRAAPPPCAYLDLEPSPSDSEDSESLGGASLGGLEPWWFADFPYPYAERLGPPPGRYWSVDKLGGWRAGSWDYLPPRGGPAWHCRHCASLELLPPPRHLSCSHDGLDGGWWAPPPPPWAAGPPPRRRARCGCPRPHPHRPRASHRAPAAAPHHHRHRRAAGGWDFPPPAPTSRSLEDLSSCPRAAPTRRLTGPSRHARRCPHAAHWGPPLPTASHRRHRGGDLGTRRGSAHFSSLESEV

[6] = test system: GluN1/GluN2A receptors with the NTD deleted on both the GluN1 and GluN2 subunits; assay: Inhibition of NTD-deleted GluN1/GluN2A receptor responses in Xenopus oocytes; assay type: cell-based
[7] = target: GluN1/GluN2C NMDA receptor (Rattus norvegicus, UniProt P35439+Q00961); assay type: cell-based; settings: 10 μM L-glutamate plus 10 μM glycine, ± s.e.m., n ≥ 4
GluN1/GluN2C NMDA receptor, sequence (Q00961 20-1237, other chains not shown): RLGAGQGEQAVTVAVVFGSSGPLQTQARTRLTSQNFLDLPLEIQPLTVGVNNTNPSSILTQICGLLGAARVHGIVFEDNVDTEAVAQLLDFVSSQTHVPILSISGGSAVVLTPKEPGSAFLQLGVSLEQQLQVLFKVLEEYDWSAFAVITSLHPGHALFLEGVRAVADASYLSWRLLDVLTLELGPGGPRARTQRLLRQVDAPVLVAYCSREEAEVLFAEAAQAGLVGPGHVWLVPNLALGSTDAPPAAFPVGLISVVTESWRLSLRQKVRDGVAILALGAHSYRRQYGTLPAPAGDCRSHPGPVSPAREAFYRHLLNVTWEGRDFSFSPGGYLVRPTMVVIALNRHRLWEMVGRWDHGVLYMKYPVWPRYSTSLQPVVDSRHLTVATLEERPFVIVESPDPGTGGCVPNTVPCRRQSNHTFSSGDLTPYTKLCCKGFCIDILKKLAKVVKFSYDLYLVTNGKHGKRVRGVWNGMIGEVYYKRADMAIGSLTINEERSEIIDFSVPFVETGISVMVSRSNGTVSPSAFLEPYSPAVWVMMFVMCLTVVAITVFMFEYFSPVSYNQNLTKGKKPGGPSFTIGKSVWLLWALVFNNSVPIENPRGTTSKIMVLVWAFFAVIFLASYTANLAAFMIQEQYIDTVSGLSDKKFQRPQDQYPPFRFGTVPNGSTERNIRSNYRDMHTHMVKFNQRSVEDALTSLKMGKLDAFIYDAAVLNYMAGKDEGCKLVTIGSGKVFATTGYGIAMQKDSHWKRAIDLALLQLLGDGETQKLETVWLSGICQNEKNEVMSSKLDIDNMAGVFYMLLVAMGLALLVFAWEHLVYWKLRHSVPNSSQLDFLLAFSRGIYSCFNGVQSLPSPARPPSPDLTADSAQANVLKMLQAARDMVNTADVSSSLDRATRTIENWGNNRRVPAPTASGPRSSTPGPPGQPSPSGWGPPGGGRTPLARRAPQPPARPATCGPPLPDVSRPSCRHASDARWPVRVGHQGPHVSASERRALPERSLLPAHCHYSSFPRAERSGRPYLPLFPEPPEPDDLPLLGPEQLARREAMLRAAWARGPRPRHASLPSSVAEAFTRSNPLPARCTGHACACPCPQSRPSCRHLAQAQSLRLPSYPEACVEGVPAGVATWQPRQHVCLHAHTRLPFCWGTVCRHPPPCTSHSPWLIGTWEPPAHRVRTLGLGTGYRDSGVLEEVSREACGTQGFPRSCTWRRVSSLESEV

[8] = 10 μM L-glutamate plus 10 μM glycine, ± s.e.m., n ≥ 4
[9] = 10 μM L-glutamate plus 10 μM glycine, −60 mV, ± s.e.m., n ≥ 4

% Max. Inh. GluN1/GluN2A [1, 8]: 78.8 ± 2.5^CHI % | % Max. Inh. GluN1/GluN2C [7]: 77.3 ± 5.0^EHI % | % Max. Inh. GluN1/GluN2B [4]: 82.1 ± 3.1% | % Max. Inh. GluN1/GluN2D [5, 8]: 97.0 ± 2.2%
Structure (SMILES): O=C(O)c1cc2cc(-c3ccccc3)ccc2c(I)c1O [UBP619, 2-hydroxy-1-iodo-6-phenyl-3-naphthoic acid]

% Max. Inh. GluN1/GluN2A [1, 8]: 90% and 90.5 ± 7.4% | % Max. Inh. GluN1/GluN2C [7]: 96.1 ± 2.3% | % Max. Inh. GluN1/GluN2B [4]: 90% and 90.6 ± 10.7% | % Max. Inh. GluN1/GluN2D [5, 8]: 107.1 ± 4.3%
Structure (SMILES): O=C(O)c1cc2cc(Br)ccc2c(I)c1O [UBP620, 6-bromo-2-hydroxy-1-iodo-3-naphthoic acid]

% Max. Inh. GluN1/GluN2A [1, 8]: 104.3 ± 4.3% | fold lower potency than UBP552 at GluN1/GluN2A ([1]; from IC50 values, Table 1): 3 fold | % Max. Inh. GluN1/GluN2C [7]: 103.0 ± 7.1% | % Max. Inh. GluN1/GluN2B [4]: 84.4 ± 12.5% | % Max. Inh. GluN1/GluN2D [5, 8]: 112.4 ± 21.3% | fold lower potency than UBP552 for GluN1/GluN2D ([5]; from IC50 values, Table 1): 33 fold
Structure (SMILES): O=C(O)c1cc(Br)c2ccc(Br)cc2c1 [UBP628, 1,6-Dibromo-3-naphthoic acid]

Continued, compound first:

Structure (SMILES): O=C(O)c1cc2cc(Br)ccc2c(Br)c1O [UBP552, 1,6-Dibromo-2-hydroxy-3-naphthoic acid]
% Max. Inh. GluN1/GluN2A [1, 8]: 105.6 ± 4.3% | IC50 [1, 9]: 6.29 ± 0.88 µM | IC50 ([1]; [Gly] 10 μM, [L-Glu] 2.0 μM): 5.05 ± 0.73 µM | IC50 ([1]; [Gly] 10 μM, [L-Glu] 300 μM): 8.58 ± 0.84 µM | IC50 ([1]; [Gly] 300 μM, [L-Glu] 10 μM): 10 ± 1.93 µM | IC50 ([1]; [Gly] 300 μM, [L-Glu] 300 μM): 15.5 ± 1.73 µM | inhibition of receptor responses in the absence of the NTD ([2]; NTD deleted on GluN1 and GluN2D (Figure 4C)): still able to inhibit | effect of NTD deletion on inhibitory potency ([2]; compared with wild-type GluN1/GluN2D): decreased the inhibitory potency | ability to fully inhibit receptor responses ([3]; all GluN1/GluN2A-D receptors): able to fully inhibit all receptor responses | antagonist activity at AMPA receptors (AMPA receptors): has antagonist activity | % Max. Inh. GluN1/GluN2B [4]: 108.3 ± 2.0% | % Max. Inh. GluN1/GluN2D [5, 8]: 103.6 ± 2.2% | effect on oocytes expressing GluN1/GluN2D receptors without agonists ([5]; 100 μM compound in the absence of L-glutamate and glycine): no detectable effect | IC50 [5, 9]: 3.35 ± 0.18 µM | IC50 ([5]; [Gly] 10 μM, [L-Glu] 0.3 μM): 6.26 ± 0.58 µM | IC50 ([5]; [Gly] 10 μM, [L-Glu] 300 μM): 3.35 ± 0.82 µM | IC50 ([5]; [Gly] 300 μM, [L-Glu] 10 μM): 3.73 ± 0.75 µM | IC50 ([5]; [Gly] 300 μM, [L-Glu] 300 μM): 4.85 ± 0.27 µM | decrease of IC50 values ([5]; increasing L-glutamate from 0.3 μM to 10 μM or to 300 μM, p < 0.05): 46% | inhibition of receptor responses in the absence of the NTD ([6]; NTD deleted on GluN1 and GluN2A (Figure 4C)): still able to inhibit | effect of NTD deletion on inhibitory potency ([6]; compared with wild-type GluN1/GluN2A): increased the potency

Structure (SMILES): O=C(O)c1cc2cc(-c3ccccc3)ccc2cc1O [UBP617, 2-hydroxy-6-phenyl-3-naphthoic acid]
% Max. Inh. GluN1/GluN2A [1, 8]: 71.5 ± 6.4C^c-iHI % | % Max. Inh. GluN1/GluN2B [4]: 56.8 ± 5.2^c-ic-ic-ic-iI %

Structure (SMILES): Oc1ccc2cc(Br)ccc2c1Br [UBP644, 1,6-dibromo-2-naphthol]
Inhibitory activity at NMDA receptors (Figure 2) ([3]; compound at 100 μM, GluN1/GluN2A-D, 10 μM L-glutamate plus 10 μM glycine): virtually inactive; also recorded: eliminated activity
